Reference: patent publication US20090239757A1, “Control Sequences Responding to AMP and Uses Thereof” (priority 2004, published 2009)
Residues, ends and D or L forms follow the SMILES beside them.

Test system: E. coli TOP10
Experiment: microarray transcription profile of E. coli TOP10 expressing Novispirin G10 (pDRS5-novispirin, arabinose induced) relative to control strain pBAD gIII A
Assay type: cell-based, Escherichia coli
Experimental: In order to obtain a transcriptional profile of E. coli expressing Novispirin G10, 2×10 mL sterile LB media (10 g/L Bactotryptone, 5 g/L Yeast extract, and 10 g/L NaCl) containing 100 mg/L ampicillin was inoculated with E. coli TOP10 harbouring pDRS5-novispirin and pBAD gIII A, respectively. These cultures were grown overnight at 37° C. at 180 rpm. The overnight cultures were diluted 1/100 into fresh sterile RM media (2% Casamino Acids, 0.2% glycerol, 1 mM MgCl2, 0.1 mM thiamine, 6 g/L Na2HPO4, 3 g/L KH2PO4.2H2O, 0.5 g/L NaCl, 0.1 g/L NH4Cl at pH 7.4) supplemented with 100 mg/L ampicillin and 0.1% arabinose. 100 mL of each culture was grown at 37° C., 240 rpm for 4.5 hours before being harvested by poured into centrifugation tubes containing 10 mL pre-frozen milliQ water and immediate centrifugation at 4200 g for 15 minutes at 4° C. Immediately hereafter, the supernatant was decanted and the cell […] was frozen at −20° C. for storage until RNA preparation was initiated.
Total RNA was isolated from the two E. coli (expressing either Novispirin G10 or a control peptide) cultures by use of the High Pure RNA Isolation kit (Roche, cat #1 828 665) according to the manufacturers instructions. Residual DNA was removed on-column with RNase-free DNase. Labelled samples were prepared from 30 μg of total bacterial RNA. Fluorescent first strand cDNA was prepared by random primed reverse transcription (Superscript II; Life Technologies) by use of random hexamers for cDNA synthesis. 2 μl (20 μg) of random primer was mixed with 15 μl (30 μg) of total RNA, incubated for 5 min at 70° C., and cooled on ice. To each sample was added 5× first strand buffer (6 μl), 0.1 M DTT (3 μl), dNTP mix (5 mM dATP, dGTP and dTTP and 2 mM dCTP) (1 μl), RNaseOut (1 μl), Superscript II reverse transcriptase (2 μl) and Cy-dCTP (3 μl). Reverse transcription was carried out at 42° C. for 1 hr. RNA was removed by addition of 10 μl NaOH (1 M) and incubation at 65° C. for 10 min. The samples were neutralised by addition of 10 μl HCl (1 M). Cy3 and Cy5 cDNA samples were mixed and immediately purified with a GFX PCR DNA and Gel Band Purification Kit (Amersham Biosciences).
Slides were pre-hybridised at 42° C. for 45 min in a solution containing 4×SSC+0.5% SDS+1% BSA and dried by centrifugation. Hybridizations were in a volume of 25 μl under a supported cover slip at 42° C. for 16-18 h at high humidity. The hybridisation mixture was labelled cDNA in a formamide-based hybridisation buffer (MWG—supplied with the pan-arrays). Cover slip and supports were gently removed (2×SSC in a wash tray) and arrays were washed by immersion into 2×SSC+0.1% SDS for 5 min, 1×SSC+0.1% SDS for 5 min, 0.5×SSC for 5 min and 1× millipore water for 10 sec and dried by centrifugation. Slides were scanned on a GMS 418 scanner to detect Cy3 and Cy5 fluorescence. Data analysis was carried out using ImaGene 5.0 and GeneSight 3.5 from BioDiscovery (www.biodiscovery.com). Two biological replicate experiments with four replicate hybridisations in each experiment were carried out for generation of data.
Pan E. coli K12 Arrays from MWG Biotech were used in this study (lot No.: 020206). The 4239 E. coli K12 specific oligonucleotide probes present on this glass-based DNA chip represent the complete Escherichia coli (K12) genome
Gene expression data was analyzed using the GeneSight 4.1.5 software from BioDiscovery. Data was prepared using local background correction, removal of flagged spots (contaminated background or signal), floor value raising data to a minimum value of 20, calculation of ratio, log(2) transformation of ratios, print-tip lowess normalization, and finally combination of replicate spot.

[1] = confidence level of 90%, relative to control strain expressing a peptide without antimicrobial activity

## CC[C@H](C)[C@H](NC(=O)CNC(=O)[C@H](CCCCN)NC(=O)[C@H](CCCNC(=N)N)NC(=O)[C@@H](NC(=O)[C@@H](NC(=O)[C@H](CCCNC(=N)N)NC(=O)[C@H](CCCNC(=N)N)NC(=O)[C@H](CC(C)C)NC(=O)[C@H](CC(N)=O)NC(=O)[C@@H](N)CCCCN)[C@@H](C)CC)[C@@H](C)CC)C(=O)N[C@@H](Cc1c[nH]cn1)C(=O)N[C@H](C(=O)N[C@H](C(=O)N[C@@H](CCCCN)C(=O)N[C@@H](CCCCN)C(=O)N[C@@H](Cc1ccc(O)cc1)C(=O)NCC(=O)O)[C@@H](C)CC)[C@@H](C)CC [Novispirin G10] (H-KNLRRIIRKGIHIIKKYG-OH; N-terminus assumed)
  ratio, gene tra8_1: −4.3
  ratio, gene trpD: −3.4
  ratio, gene tsx: −3.3
  ratio, gene ugpA: 3.3
  ratio, gene uvrY: 3.3
  ratio, gene uxuB: 3.5
  ratio, gene vacJ: 3.0
  ratio, gene wcaD: −2.7
  ratio, gene wcaJ: −2.8
  ratio, gene wza: 3.3
  ratio, gene xasA: 24.9
  ratio, gene yaaI: 2.9
  ratio, gene yabI: −2.6
  ratio, gene yafC: −5.1
  ratio, gene yagT: 3.3
  ratio, gene yaiH: 6.1
  ratio, gene yaiP: −3.9
  ratio, gene ybaP: 8.4
  ratio, gene ybaS: 8.8
  ratio, gene ybaY: 9.9
  ratio, gene ybbN: −2.6
  ratio, gene ybbY: 4.4
  ratio, gene ybdS: 4.2
  ratio, gene ybeK: −3.0
  ratio, gene ybeL: 3.6
  ratio, gene ybfA: 3.5
  ratio, gene ybgA: 4.2
  ratio, gene ybhL: 9.3
  ratio, gene ybhP: −5.1
  ratio, gene ybhS: −2.6
  ratio, gene ybiU: −3.7
  ratio, gene ybiX: −2.7
  ratio, gene ybjC: −2.7
  ratio, gene ybjG: 5.8
  ratio, gene ybjN: −2.7
  ratio, gene ybjX: 5.3
  ratio, gene ycaC: 7.4
  ratio, gene ycbQ: −5.0
  ratio, gene yccD: 4.9
  ratio, gene yccM: 2.8
  ratio, gene ycdQ: −2.8
  ratio, gene ycfA: −3.4
  ratio, gene ycfH: 5.3
  ratio, gene ycfR: 2.8
  ratio, gene ycgB: 4.5
  ratio, gene ycgY: 3.0
  ratio, gene yciE: 5.4
  ratio, gene yciI: 5.1
  ratio, gene yciR: 6.5
  ratio, gene ycjF: −2.7
  ratio, gene yddM: 3.0
  ratio, gene ydhO: −2.8
  ratio, gene yeaG: 12.0
  ratio, gene yeaH: 2.8
  ratio, gene yeaP: −2.6
  ratio, gene yeaQ: 6.9
  ratio, gene yedU: 3.7
  ratio, gene yehT: −4.0
  ratio, gene yehX: 5.6
  ratio, gene yehY: 4.2
  ratio, gene yehZ: 7.1
  ratio, gene yeiQ: −2.7
  ratio, gene yfbM: 4.9
  ratio, gene yfcI: 3.1
  ratio, gene yfiA: −3.6
  ratio, gene yfiD: −2.6
  ratio, gene ygaG: 3.8
  ratio, gene ygaH: −3.3
  ratio, gene ygaM: 7.9
  ratio, gene ygaU: 5.1
  ratio, gene ygcO: −5.7
  ratio, gene ygeF: 5.2
  ratio, gene ygfQ: 3.7
  ratio, gene yggH: 5.7
  ratio, gene ygiA: 4.2
  ratio, gene ygiW: 5.2
  ratio, gene yhaF: −2.6
  ratio, gene yhcO: 4.4
  ratio, gene yhfG: 3.4
  ratio, gene yhgE: −2.9
  ratio, gene yhhZ: −2.6
  ratio, gene yhiE: 3.9
  ratio, gene yhiF: 2.9
  ratio, gene yhiW: 3.0
  ratio, gene yhjX: −9.6
  ratio, gene yi81_1: −3.2
  ratio, gene yiaG: 10.1
  ratio, gene yiaL: −2.9
  ratio, gene yibI: −3.1
  ratio, gene yidZ: −3.3
  ratio, gene yieJ: −2.9
  ratio, gene yieN: −3.8
  ratio, gene yigW_1: 3.8
  ratio, gene yihL: −8.0
  ratio, gene yihM: −3.3
  ratio, gene yihQ: 3.9
  ratio, gene yijC: 4.1
  ratio, gene yjbF: −3.5
  ratio, gene yjbO: 8.3
  ratio, gene yjcF: 3.1
  ratio, gene yjdB: 4.5
  ratio, gene yjiG: 3.1
  ratio, gene yjiZ: 3.8
  ratio, gene ykgE: −4.2
  ratio, gene ykgF: −3.1
  ratio, gene ylbB: −3.1
  ratio, gene ylcC: −3.6
  ratio, gene ylcD: 8.8
  ratio, gene ymdD: −4.3
  ratio, gene ymfJ: −3.4
  ratio, gene ymfM: 5.1
  ratio, gene ymgE: 3.9
  ratio, gene yncB: 3.4
  ratio, gene ynfL: 5.7
  ratio, gene yoaE: 2.8
  ratio, gene yodB: 6.2
  ratio, gene yohC: 12.0
  ratio, gene yohF: 2.8
  ratio, gene yohM: 7.7
  ratio, gene yqcD: −3.3
  ratio, gene yqgA: −2.9
  ratio, gene yqhD: −2.6
  ratio, gene yqhE: 4.0
  ratio, gene yqjC: 3.2
  ratio, gene yqjD: 5.8
  ratio, gene yqjE: 3.9
  ratio, gene yqjF: 3.6
  ratio, gene yqjG: 2.9
  ratio, gene yrbF: 3.1
  ratio, gene yrfG: −2.6
  ratio, gene ysgA: 2.8
AMP resistance
  Fold, gene ais: 14.1
  Fold, gene b2253: 8.4
  Fold, gene b2254: 5.5
  Fold, gene b2256: 4.0
  Fold, gene crcA: 11.7
Acid shock
  Fold, gene Asr: 19.2
  Fold, gene Slp: 3.6
  Fold, gene dksA: 4.1
  Fold, gene dps: 4.4
  Fold, gene gabP: 8.2
  Fold, gene gabT: 6.5
  Fold, gene gadC: 24.9
  Fold, gene gadE: 3.9
  Fold, gene gadW: 3.0
  Fold, gene hdeA: 7.7
  Fold, gene hdeB: 7.9
  Fold, gene hdeD: 4.3
  Fold, gene nmpC: −6.6
  Fold, gene ybaS: 8.8
  Fold, gene ycaC: 7.4
  Fold, gene ydiZ: 9.1
  Fold, gene yeaQ: 6.9
  Fold, gene yebV: 6.9
  Fold, gene yiaG: 10.1
Carbon metabolism
  Fold, gene amyA: 5.8
  Fold, gene b2097: 8.1
  Fold, gene glk: 3.4
  Fold, gene sfcA: 5.8
  Fold, gene sfsA: 6.4
  Fold, gene talA: 11.7
  Fold, gene tktB: 26.5
Heat shock
  Fold, gene clpB: −3.6
  Fold, gene dnaJ: −3.0
  Fold, gene dnaK: −2.8
  Fold, gene grpE: −3.0
  Fold, gene hslU: −3.2
  Fold, gene hslV: −3.0
  Fold, gene ibpB: −6.5
  Fold, gene lon: −2.9
  Fold, gene mopA: −3.6
  Fold, gene mopB: −9.1
Mg^2+-stimulon
  Fold, gene hemL: 8.3
  Fold, gene mgrB: 4.6
  Fold, gene mgtA: 7.5
  Fold, gene nagA: 3.7
  Fold, gene phoP: 2.8
  Fold, gene phoQ: 3.7
  Fold, gene rstB: 3.6
Mg^2+-stlmulon(?)
  Fold, gene nagB: 8.8
Nitrogen assimilation
  Fold, gene narU: 15.1
  Fold, gene narX: −4.0
  Fold, gene narY: 11.0
  Fold, gene narZ: 4.9
  Fold, gene nirB: −2.9
  Fold, gene nirC: −3.0
  Fold, gene nirD: −5.7
  Fold, gene nrfA: −12.7
Osmotic shock
  Fold, gene bolA: 13
  Fold, gene dacC: 3.6
  Fold, gene katE: 9.9
  Fold, gene osmC: 7.2
  Fold, gene osmE: 11.7
  Fold, gene osmY: 6.4
  Fold, gene otsA: 5.2
  Fold, gene otsB: 5.6
  Fold, gene proW: 7.9
  Fold, gene yehX: 5.6
  Fold, gene yehY: 4.2
  Fold, gene yehZ: 7.1
Phage shock
  Fold, gene pspA: 6.7
  Fold, gene pspB: 6.9
  Fold, gene pspC: 15.8
  Fold, gene pspD: 13.5
  Fold, gene pspE: 9.4
Protein folding
  Fold, gene sfmC: 11.4
Redox
  Fold, gene aer: 14.3
  Fold, gene appB: 47.2
  Fold, gene appC: 3.5
  Fold, gene ndh: 3.1
[1]
  number of genes down-regulated: 144 genes
  number of genes up-regulated: 200 genes
